Experimental data reported in patent publication US20050000154A1, “Apparatus and methods for enhanced plant and lawn growth using alkane injection” (Global BioSciences, Inc., priority 2001, published 2005).
Where “and” joins values, the source holds several entries; their conditions need not be identical. Equal values may be shown once. Read-outs that look alike come from different tables or passages of the source.

Columns and labels:
Gladioli bulb [1] = settings: liquid butane injected into the rhizosphere, halted Day 19
Method: Each vessel was filled with approximately 800 cm^3 of Pro-Mix® Potting Soil 214.
(§1) Each vessel contained one Gladioli bulb 216 placed at a depth of 10 cm below soil surface. FIG. 21 is a photograph showing the bulbs and vessels. Each vessel was then watered with 100 ml spring water and positioned on its own drainage tray on a shelf approximately 60 cm below two 33 watt grow light tubes (no sunlight) equipped with a timer set for 16 hours light on, 6 hours light off.

[2] = tested on: sweet corn, variety Sugar Dots; settings: for Seedling Height: two seedlings
Method: (§2) The tubing intersected the vessel through the diameter at a height of 3.5 cm above the base. […] Each vessel was filled with approximately 902 cm^3 of Iowa Crop Soil (soil depth =9.5 cm) that had been collected from an Iowa commercial cornfield. The soil in each vessel was tested for pH using a Chemetrics pH meter dipped in a mixture of 40 ml distilled water and 100 grams of soil.
(§3) Each vessel was seeded with two seeds of sweet corn, variety Sugar Dots, (using the seed positions shown in FIG. 9) placed at a depth of 2.54 cm below soil surface. Each vessel was then watered with 100 ml spring water and positioned on its own drainage tray on a shelf approximately 10 cm below three 33 watt grow light tubes (no sunlight) equipped with a timer set for 16 hours light on, 6 hours light off. White reflective covering was placed on the wall immediately behind the samples, with an aluminum foil hood extending over the light fixture to reflect light downward onto the vessels.

Gladioli bulb [3] = tested on: Gladioli bulb
Method: Each vessel was filled with approximately 800 cm^3 of Pro-Mix® Potting Soil (see FIGS. 20 and 21).
as §1, with “bulb” for “bulb 216”, “surface.” for “surface. FIG. 21 is a photograph showing the bulbs and vessels.”

[4] = tested on: sunflower (Sun Gold-Golden Yellow Double) seed; settings: for Seedling Height / germination: sterilized Caribbean Beach Sand
Method: Four vessels were filled with approximately 800 cm^3 of Paver Construction Sand (non-sterile) and two vessels contained sterilized Caribbean beach sand (see FIG. 23).
as §1, with “one sunflower (Sun Gold-Golden Yellow Double) seed” for “one Gladioli bulb 216”, “of 5.0” for “of 10”, “surface.” for “surface. FIG. 21 is a photograph showing the bulbs and vessels.”

[5] = tested on: sweet corn, variety Sugar Dots; settings: for Seedling Height: two seedlings; remark: listed apart in the source
Method: as §2, with “1.5” for “3.5”, “523” for “902”, “=5.5” for “=9.5”
as §3, with “placed (illustrated” for “(using the seed positions shown”, “9)” for “9) placed”, “two” for “three”

[6] = Table 7 Day No. 6 (final day), Butane Bulb 1 and 2

## CCCC [Butane, n-butane]
Gladioli bulb [1]; listed as Liquid butane
  effect of liquid butane injection on growing plants: into the rhizosphere killed the
Gladioli bulb [1]; listed as liquid butane
  effect of liquid butane injection on growing plants: killed
[2]; Day 16
  average height taller than the control corn plant: 55%
[2]; Day 16, average of two plants
  average growth in height: 23.3 cm
[2]; Day No. 5
  Seedling Height: 0.5 cm and 1.0 cm
[2]; Day No. 6
  Seedling Height: 3.0 cm, 3.0 cm
[2]; Day No. 7
  Seedling Height: 4.0 cm, 4.0 cm
[2]; Day No. 8
  Seedling Height: 6.0 cm and 5.7 cm
[2]; Day No. 9
  Seedling Height: 8.0 cm and 7.2 cm
[2]; Day No. 10
  Seedling Height: 11.0 cm and 9.1 cm
[2]; Day No. 11
  Seedling Height: 16.0 cm and 12 cm
[2]; Day No. 12
  Seedling Height: 18.0 cm and 15.5 cm
[2]; Day No. 13
  Seedling Height: 19.0 cm and 16.7 cm
[2]; Day No. 14
  Seedling Height: 20.1 cm and 17.3 cm
[2]; Day No. 15
  Seedling Height: 22.0 cm and 18.0 cm
[2]; Day No. 16
  Seedling Height: 27.0 cm and 19.6 cm
[2]; in vivo
  time of sprouting compared with control plant: three days earlier
[2]; last day of growth (Day 16), taller plant, shorter plant
  stem thickness: 0.5 cm and 0.3 cm
[2]; over the sixteen-day period, average of two plants
  average growth rate: 1.45 cm per day
[2]; seen through clear vessels
  root branch length: up to 3 cm
[2]; sixteen-day period
  faster growth rate than the control plant: 54%
[2]; two seeds planted
  seed sprouting: sprouted into seedlings
Gladioli bulb [3]; Table 7 Day No. 1, Butane Bulb 2
  Seedling Height, secondary shoot: Secondary shoot 3.0 cm
Gladioli bulb [3]; [6]
  Seedling Height, main shoot: 27.0 cm and 29.0 cm
  Seedling Height, secondary shoot: 14.0 cm and 23.0 cm
Gladioli bulb [3]; butane enrichment for 17 days, bulbs unearthed
  root development compared with control plant: greater
Gladioli bulb [3]; butane gas injection, shoots directly from the bulb sphere
  bulb shoot bifurcation: conditioned to grow two plants
[4]; Day 23, Paver Sand, unearthed
  root development compared with control plant: thicker and more robust
[4]; Day No. 23, Paver Sand (non-sterile), two plants
  Seedling Height: 20.0 cm
[4]; Day No. 23
  Seedling Height / germination: no seed growth or
[4]; Day No. 23, listed as butane
  Seedling Height / germination: No seed growth or germination
[5]; Day No. 6, n-butane injected into root zone
  Seedling Height: 0.5 cm and 0.8 cm
[5]; Day No. 7
  Seedling Height: 4.0 cm and 4.5 cm
[5]; Day No. 8
  Seedling Height: 7.0 cm and 6.0 cm
[5]; Day No. 9 (final day)
  Seedling Height: 11.0 cm and 6.8 cm
[5]; Day No. 9 (final day), listed as butane
  Seedling Height: 11 cm and 6.8 cm
[5]; seen through clear vessels
  root spread compared with control plants: greater and more complex degree horizontally
